Measurements reported in US20070135383A1, “Phospholipase inhibitors, including multi-valent phospholipase inhibitors, and use thereof, including as lumen-localized phospholipase inhibitors” (priority 2005, published 2007).
Read-outs that look alike come from different tables or passages of the source.

Assays:
[1] = molecular target: T1, human group 1B PLA2 (hps PLA2) (Homo sapiens, UniProt P04054); test: Fluorimetric PPyrPM assay for group 1B PLA2 inhibition (Example 12); format: biochemical
T1 construct: made in house; host or cells: E. coli
Excerpt: (§1) In this example, a fluorimetric assay procedure was used to evaluate the indole and indole-related compounds of the invention as inhibitors of group 1B phospholipase A2 (PLA2) from human, mouse and porcine. A description of this assay is found in articles: Leslie, C C and Gelb, M H (2004) Methods in Molecular Biology “Assaying phospholipase A2 activity”, 284:229-242; Singer, A G, et al. (2002) Journal of Biological Chemistry “Interfacial kinetic and binding properties of the complete set of human and mouse groups I, II, V, X, and XII secreted phospholipases A2”, 277:48535-48549, which are incorporated herein as references.
(§2) In general, this assay used a phosphatidylmethanol substrate with a pyrene fluorophore on the terminal end of the sn-2 fatty acyl chain. Without being bound by theory, close proximity of the pyrenes from neighboring phospholipids in a phospholipid vesicle caused the spectral properties to change relative to that of monomeric pyrene. Bovine serum albumin was present in the aqueous phase and captured the pyrene fatty acid when it is liberated from the glycerol backbone owing to the PLA2-catalyzed reaction. However, a potent inhibitor can inhibit the liberation of pyrene fatty acid from the glycerol backbone. […] The effect of a given inhibitor and inhibitor concentration on human, mouse and porcine phospholipase was determined.
(§3) Recombinant human and mouse group 1B PLA2 were cloned and expressed in E. coli as insoluble inclusion bodies. The inclusion bodies were isolated and purified by sonicating cell pellet in lysis buffer (50 mM Tris-HCl pH 7.0, 250 mM NaCl, 0.5% Triton 100), centrifugation at 12,000×g, and washing three times in washing buffer (20 mM Tris-HCl pH 7.0, 250 mM NaCl, 0.5% Triton 100). Then the inclusion bodies were dissolved in dissolving buffer (50 mM Tris-HCl pH 7.0, 250 mM NaCl, 6 M Guanidine-HCl, 1 mM DTT) and dialyzed four times against 10 volumes of refolding buffer (20 mM Tris-HCl pH 7.0, 250 mM NaCl, 0.5M Guanidine-HCl, 5% (w/w) Glycerol, 2 mM reduced glutathione and 0.4 mM oxidized glutathione) at 4° C. The correctly refolded proteins were concentrated using Amicon Stirred cell under nitrogen pressure (<70 psi) and dialyzed against 10 volumes of 50 mM Tris-HCl pH 7.0, 250 mM NaCl and 5% (w/w) glycerol. Human and mouse group 1B PLA2 were further purified by High S ion exchange and gel filtration columns.
(§4) The following reagents and equipments were obtained from commercial vendors: • 1. Porcine group 1B phospholipase A2 • 2. 1-hexadecanoyl-2-(1-pyrenedecanoyl)-sn-glycero-3-phosphomethanol (PPyrPM) • 3. Bovine serum albumin (BSA, fatty acid free) • 4. 2-Amino-2-(hydroxymethyl)-1,3-propanediol, hydrochloride (Tris-HCl) • 5. Calcium chloride • 6. Potassium chloride • 7. Solvents: DMSO, toluene, isopropanol, ethanol • 8. Molecular Devices SPECTRAmax microplate spectrofluorometer • 9. Costar 96 well black wall/clear bottom plate
(§5) The following reagents were prepared: • 10. PPyrPM stock solution (1 mg/ml) in toluene:isopropanol (1:1) • 11. ILY104 inhibitor stock solution (10 mM) in DMSO • 12. 3% (w/v) bovine serum albumin (BSA) • 13. Stock buffer: 50 mM Tris-HCl, pH 8.0, 50 mM KCl and 1 mM CaCl2
(§6) The following procedure was performed to evaluate the inhibitory potency of the evaluated compounds. • 14. An assay buffer was prepared by adding 3 ml 3% BSA to 47 ml stock buffer. • 15. Solution A was prepared by adding serially diluted inhibitors to the assay buffer. Inhibitors were three-fold diluted in stock buffer in a series of 8 from 15 uM. • 16. Solution B was prepared by adding human, mouse or porcine PLA2 to the assay buffer. This solution was prepared immediately before use to minimize enzyme activity loss. • 17. Solution C was prepared by adding 30 ul PPyrPM stock solution to 90 ul ethanol, and then all 120 ul of PPyrPM solution was transferred drop-wise over approximately 1 min to the continuously stirring 8.82 ml assay buffer to form a final concentration of 4.2 uM PPyrPM vesicle solution. • 18. […]

[2] = molecular target: T2, mouse group 1B PLA2 (mps PLA2) (Mus musculus, UniProt Q9Z0Y2); test: as above; format: biochemical
T2 construct: made in house; host or cells: E. coli
Excerpt: as §1, §2, §3, §4, §5, §6

[3] = molecular target: T3, porcine group 1B PLA2 (pps PLA2) (Sus scrofa, UniProt P00592); test: as above; format: biochemical
T3 construct: purchased
Excerpt: as §1, §2, §4, §5
The following procedure was performed to evaluate the inhibitory potency of the evaluated compounds. • 14. An assay buffer was prepared by adding 3 ml 3% BSA to 47 ml stock buffer. • 15. Solution A was prepared by adding serially diluted inhibitors to the assay buffer. Inhibitors were three-fold diluted in stock buffer in a series of 8 from 15 uM. • 16. Solution B was prepared by adding human, mouse or porcine PLA2 to the assay buffer. This solution was prepared immediately before use to minimize enzyme activity loss. • 17. Solution C was prepared by adding 30 ul PPyrPM stock solution to 90 ul ethanol, and then all 120 ul of PPyrPM solution was transferred drop-wise over approximately 1 min to the continuously stirring 8.82 ml assay buffer to form a final concentration of 4.2 uM PPyrPM vesicle solution. • 18. The SPECTRAmax microplate spectrofluorometer was set at 37° C. • 19. 100 ul of solution A was added to each inhibition assay well of a costar 96 well black wall/clear bottom plate • 20. 100 ul of solution B was added to each inhibition assay well of a costar 96 well black wall/clear bottom plate. • 21. 100 ul of solution C was added to each inhibition assay well of a costar 96 well black wall/clear bottom plate. • 22. The plate was incubated inside the spectrofluorometer chamber for 3 min. • 23. The fluorescence was read using an excitation of 342 nm and an emission of 395 nm.
Evaluated compounds were tested in duplicate and their values were averaged to plot the inhibition curve and calculate the IC50. Compared to uninhibited controls, lower fluorescent signal at an emission of 395 nm in test reactions evidenced inhibition of PLA2. […] Compounds initially found to be active were repeated to confirm their inhibitory activity. […]

[4] = Mouse pharmacokinetic study, IV vs oral (Example 18); format: in vivo, male CD-1 mice; details: PO 30 mg/kg vs IV 3 mg/kg, serum by LC/MS/MS; for bioavailability: male, CD-1, mouse
Method: The plasma exposure of male CD-1 mice to indole and indole-related test articles (TAs) following intravenous (IV, 3 mg/kg) and oral (PO, 30 mg/kg) routes of administration was measured. This model was used to investigate the bioavailability of indole and indole-related TAs in mouse. Mice were selected for the study since they are an accepted species frequently used in pre-clinical evaluation of drugs intended for human use.
Male CD-1 mice (7-8 weeks old) were obtained from Charles River Laboratories (Wilmington, Mass.). Two groups (N=18 and 27) of male CD-1 mice were used for the study. Upon arrival, the animals were placed on Rodent Diet 5001 (Purina Mills, Inc., St. Louis, Mo.).
On study day (−1), indole and indole-related TAs were formulated for oral or IV dosing by mixing the formulation components with test article in the proportions described in Table 10.1. The components were mixed by vortexing and sonicating in a warming bath for 60 minutes. Animals were fasted overnight prior to start of the study. On study day (1), formulations were sonicated for an hour to make sure that no visible particles were present prior to dosing, or if present were evenly distributed in suspension. Formulated test article were stirred continuously during dosing.
All animals were weighed on study day (1) and the body weights were recorded and used for dose calculation. The animals were dosed by either PO or IV route as outlined in Table 10.2. Blood samples (0.5 mL) were collected at specified time intervals into labeled, yellow-capped Microtainer tubes. The tubes were centrifuged (8,000×g, 10 min). Serum was then pipetted off into labeled Eppendorf® tubes and frozen at −80° C. Clinical observations were recorded as needed.
Analysis of serum samples was performed by LC/MS/MS (Waters Quattro Premier, Milford, Mass.). Areas under curves (AUC) were calculated using Graphpad Prism Version 4. Bioavailability was calculated using the following equation: (Bioavailability)=(AUC0-t,oral/AUC0-t,iv)×(Doseiv/Doseoral)×100
where AUC0-t=total area under curve at the last measurable time point

[5] = human pancreas secreted PLA2, read-out: ILYPSA IC50 hps PLA2
[6] = mouse pancreas secreted PLA2, read-out: ILYPSA IC50 mps PLA2
[7] = porcine pancreas secreted PLA2, read-out: ILYPSA IC50 pps PLA2

T1 sequence (P04054 23-148): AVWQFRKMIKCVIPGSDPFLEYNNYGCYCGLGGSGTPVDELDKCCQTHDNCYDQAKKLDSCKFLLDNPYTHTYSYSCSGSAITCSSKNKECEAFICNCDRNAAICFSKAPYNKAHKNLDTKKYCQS
T3 sequence (P00592 23-146): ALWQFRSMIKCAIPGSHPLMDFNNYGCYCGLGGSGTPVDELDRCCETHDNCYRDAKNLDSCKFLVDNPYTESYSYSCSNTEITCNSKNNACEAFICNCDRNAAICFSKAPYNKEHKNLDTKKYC
T2 sequence (Q9Z0Y2 23-146): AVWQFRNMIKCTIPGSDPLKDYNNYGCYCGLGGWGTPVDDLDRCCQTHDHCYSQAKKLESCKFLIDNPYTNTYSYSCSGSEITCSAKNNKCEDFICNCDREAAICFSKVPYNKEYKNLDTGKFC

| Structure (SMILES) | IC50 [1, 5] | IC50 [2, 6] | IC50 [3, 7] | further results |
| --- | --- | --- | --- | --- |
| Cc1c(C(=O)C(N)=O)c2c(OCC(=O)O)cccc2n1CCCCCCCCCCCCSCCCCCCCCSCCCCCCCCCCCCn1c(C)c(C(=O)C(N)=O)c2c(OCC(=O)O)cccc21 [ILY-V-26, 2,2′-(1,1′-(12,12′-(Octane-1,8-diylbis(sulfanediyl))bis(dodecane-12,1-diyl))bis(3-(2-amino-2-oxoacetyl)-2-methyl-1H-indole-4,1-diyl))bis(oxy)diacetic acid] | 240 nM | 340 nM | 260 nM | bioavailability [4]: 0% |
| Cc1c(C(=O)C(N)=O)c2c(OC(C(=O)O)C(C)C)cccc2n1CCCCCCCCCCCCOc1ccccc1OCCCCCCCCCCCCn1c(C)c(C(=O)C(N)=O)c2c(OC(C(=O)O)C(C)C)cccc21 (stereo not drawn) [ILY-V-33, 2,2′-(1,1′-(12,12′-(1,2-phenylenebis(oxy))bis(dodecane-12,1-diyl))bis(3-(2-amino-2-oxoacetyl)-2-methyl-1H-indole-4,1-diyl))bis(oxy)bis(3-methylbutanoic acid)] | 220 nM | 200 nM | 240 nM | bioavailability ([4]; in vivo): 8.75% |
| Cc1c(C(=O)C(N)=O)c2c(OCC(=O)O)cccc2n1CCCCCCCCCCCCOc1ccccc1OCCCCCCCCCCCC(=O)O [ILY-V-41, 12-{2-[12-(3-Aminooxalyl-4-carboxymethoxy-2-methyl-indol-1-yl)-dodecyloxy]-phenoxy}-dodecanoic acid] | 1540 nM | 1600 nM | 1140 nM | bioavailability ([4]; in vivo): 1.62% |
| Cc1c(C(=O)C(N)=O)c2c(OCC(=O)O)cccc2n1CCCCCCCCCCCCOc1cc(OCCCCCCCCCCCCn2c(C)c(C(=O)C(N)=O)c3c(OCC(=O)O)cccc32)cc(OCCCCCCCCCCCCn2c(C)c(C(=O)C(N)=O)c3c(OCC(=O)O)cccc32)c1 [ILY-V-32, 2,2,′,2″-(1,1′,1″-(12,12′,12″-(benzene-1,3,5-triyltris(oxy))tris(dodecane-12,1-diyl))tris(3-(2-amino-2-oxoacetyl)-2-methyl-1H-indole-4,1-diyl))tris(oxy)triacetic acid] | 60 nM | 130 nM | 90 nM | Bioavailability (%) [4]: 0.00% |
| Cc1c(C(=O)C(N)=O)c2c(OCC(=O)NS(C)(=O)=O)nccc2n1Cc1ccccc1-c1ccccc1 [ILY-II-14, 2-(3-(2-amino-2-oxoacetyl)-1-(biphenyl-2-ylmethyl)-2-methyl-1H-pyrrolo[3,2-c]pyridin-4-yloxy)-N-(methylsulfonyl)acetamide] | – | – | – | IC50 [1]: 690 nM; IC50 [2]: 590 nM; IC50 [3]: 40 nM; bioavailability [4]: 14.7% |
| Cc1c(C(=O)C(N)=O)c2c(OCC(=O)NS(=O)(=O)CCCC(=O)O)cccc2n1Cc1ccccc1 [ILY-IV-40, 4-[2-(3-Aminooxalyl-1-benzyl-2-methyl-1H-indol-4-yloxy)-acetylsulfamoyl]-butyric acid] | – | – | – | Bioavailability (%) [4]: 0.50% |
| Cc1c(C(=O)C(N)=O)c2c(OC(C(=O)O)c3ccccc3)cccc2n1Cc1ccccc1 (stereo not drawn) [ILY-IV-32, (3-Aminooxalyl-1-benzyl-2-methyl-1H-indol-4-yloxy)-phenyl-acetic acid] | – | – | – | inhibition at 15 µM ([1]; read-out: ILYPSA % inhibition at 15 μM hps PLA2, 15 μM, human pancreas secreted PLA2): 41.7%; inhibition at 15 µM ([2]; read-out: ILYPSA % inhibition at 15 μM mps PLA2, 15 μM, mouse pancreas secreted PLA2): 47.5%; inhibition at 15 µM ([3]; read-out: ILYPSA % inhibition at 15 μM pps PLA2, 15 μM, porcine pancreas secreted PLA2): 38.5% |
| Cc1c(C(=O)C(N)=O)c2c(OCC(=O)O)cccc2n1CCCCCCCCCCCCN(CCCCCCCCCCCCn1c(C)c(C(=O)C(N)=O)c2c(OCC(=O)O)cccc21)Cc1ccccc1 [ILY-V-31, 2,2′-(1,1′-(12,12′-(benzylazanediyl)bis(dodecane-12,1-diyl))bis(3-(2-amino-2-oxoacetyl)-2-methyl-1H-indole-4,1-diyl))bis(oxy)diacetic acid] | 100 nM | 30 nM | 20 nM | – |
| CCCCCCCCn1c(C)c(C(=O)C(N)=O)c2c(OCC(=O)O)nccc21 [ILY-II-8, (3-Aminooxalyl-2-methyl-1-octyl-1H-pyrrolo[3,2-c]pyridin-4-yloxy)-acetic acid] | 270 nM | 120 nM | 80 nM | – |
| Cc1ccc(S(=O)(=O)NC(=O)COc2cccc3c2c(C(=O)C(N)=O)c(C)n3Cc2ccccc2)cc1 [ILY-IV-26, 1-Benzyl-2-methyl-4-p-toluenesulfonamidoylmethyloxy-1H-indol-3-glyoxylamide] | > 5000 nM | 3090 nM | 80 nM | – |
